How the values were obtained:
STAT3 = STAT3 (Homo sapiens (Human), UniProt P40763); test: Inhibition of IFN-induced STAT3 phosphorylation in GBM cells (western blotting); type: cell-based
STAT1 = STAT1 (Homo sapiens (Human), UniProt P42224); test: IFN-induced STAT1 phosphorylation in GBM cells (western blotting); type: cell-based
MCF7 breast cancer cells = test: MTS cell viability assay in MCF7 breast cancer cells; type: cell-based; conditions: 72 hours treatment, concentration not given
Procedure: MTS assay was used to determine the cell viability for all compounds tested. Computational docking scores were used to evaluate potential for STAT 3 inhibition (FIG. 9 and Table 3). MCF7 breast cancer cells were grown until 80-90% confluence. Cells were then transferred to a Costar 96-well plate with about 3000 cells per well. Cells were incubated for 24 hours. After incubation cells were treated with appropriate compounds and concentration for 72 hours. Twenty microliters of MTS solution was added to each well and incubated for 2 hours. The plate was then analyzed using […].

MT300 GBM cells = test: Antiproliferative activity, CellTiter Glo assay, MT300 GBM cells; type: cell-based; conditions: 72 h, read-out: IC50 (proliferation)
LN299 GBM cells = test: Antiproliferative activity, CellTiter Glo assay, LN299 GBM cells; type: cell-based; conditions: 72 h, unit misprinted as 'and', read-out: IC50 (proliferation)
parental GBM cells = test: Proliferation of parental (empty vector) GBM cells, Incucyte live cell analysis; type: cell-based; conditions: parental (EV) GBM cells
STAT3-KO GBM cells = test: Proliferation of STAT3-knockout GBM cells, Incucyte live cell analysis; type: cell-based
MT330 glioma xenografts = test: Orthotopic MT330 glioma xenografts in mice, bioluminescent imaging; type: in vivo; conditions: 20 mg/Kg in DMSO, into the peritoneum three times per week, female mice, BLI
Procedure: BLI pictures were taken at Day 21.
In brief, 10^6 luciferase-expressing MT330 GBM cells were injected orthotopically into the brains of female […] mice. […] Tumor growth was monitored by BLI two times per week as we have previously described.

Sequence of STAT1 (P42224 whole entry): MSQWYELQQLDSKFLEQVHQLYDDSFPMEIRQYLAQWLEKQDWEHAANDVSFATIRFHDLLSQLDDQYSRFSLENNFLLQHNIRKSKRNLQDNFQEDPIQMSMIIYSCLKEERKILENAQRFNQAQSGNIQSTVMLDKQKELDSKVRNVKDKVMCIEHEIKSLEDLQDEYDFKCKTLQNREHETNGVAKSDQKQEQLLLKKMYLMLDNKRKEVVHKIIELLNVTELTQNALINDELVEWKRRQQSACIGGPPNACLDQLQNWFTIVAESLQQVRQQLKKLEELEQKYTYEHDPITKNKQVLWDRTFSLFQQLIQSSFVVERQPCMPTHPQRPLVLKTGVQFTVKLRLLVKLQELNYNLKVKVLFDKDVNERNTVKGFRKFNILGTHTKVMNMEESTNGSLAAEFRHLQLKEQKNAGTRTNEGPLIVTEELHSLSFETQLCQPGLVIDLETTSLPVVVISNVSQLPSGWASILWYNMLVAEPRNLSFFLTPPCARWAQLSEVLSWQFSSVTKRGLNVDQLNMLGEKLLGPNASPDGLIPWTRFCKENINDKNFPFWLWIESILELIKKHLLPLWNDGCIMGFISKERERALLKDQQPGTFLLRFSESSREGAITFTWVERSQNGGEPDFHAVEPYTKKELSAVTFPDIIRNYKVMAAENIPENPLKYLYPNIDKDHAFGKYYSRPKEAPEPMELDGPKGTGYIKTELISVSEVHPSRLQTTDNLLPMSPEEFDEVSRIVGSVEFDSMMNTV
Sequence of STAT3 (P40763 whole entry): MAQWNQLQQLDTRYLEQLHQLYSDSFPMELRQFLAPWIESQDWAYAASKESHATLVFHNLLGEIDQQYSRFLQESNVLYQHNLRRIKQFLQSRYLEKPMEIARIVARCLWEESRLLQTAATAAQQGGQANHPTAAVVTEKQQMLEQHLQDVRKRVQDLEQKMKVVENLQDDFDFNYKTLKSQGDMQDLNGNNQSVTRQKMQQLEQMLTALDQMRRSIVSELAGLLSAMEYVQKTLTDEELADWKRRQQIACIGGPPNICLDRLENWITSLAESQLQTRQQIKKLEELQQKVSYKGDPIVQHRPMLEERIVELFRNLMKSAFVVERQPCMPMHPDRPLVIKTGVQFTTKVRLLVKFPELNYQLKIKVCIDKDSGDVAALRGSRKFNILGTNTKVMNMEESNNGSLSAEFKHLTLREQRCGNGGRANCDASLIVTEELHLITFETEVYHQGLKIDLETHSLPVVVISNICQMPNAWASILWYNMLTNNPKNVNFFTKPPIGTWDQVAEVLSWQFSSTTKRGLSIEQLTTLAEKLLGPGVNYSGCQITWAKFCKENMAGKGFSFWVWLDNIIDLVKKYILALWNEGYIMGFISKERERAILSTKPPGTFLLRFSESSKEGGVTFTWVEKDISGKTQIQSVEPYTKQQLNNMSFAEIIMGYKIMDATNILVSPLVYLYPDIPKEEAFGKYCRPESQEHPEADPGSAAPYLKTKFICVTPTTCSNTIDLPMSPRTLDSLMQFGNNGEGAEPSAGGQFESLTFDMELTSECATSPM

Structure (SMILES) | Inhibition of STAT3 phosphorylation (STAT3) | Effect on STAT1 phosphorylation (STAT1) | Percent inhibition (MCF7 breast cancer cells) | IC50 (MT300 GBM cells) | IC50 (LN299 GBM cells) | Antiproliferative effect (parental GBM cells) | Antiproliferative effect (STAT3-KO GBM cells) | Effect on orthotopic GBM tumor xenografts (MT330 glioma xenografts)
N#Cc1cc(Cc2ccccc2)sc1NC(=O)c1cc2ccccc2o1 [Compound 5, N-(5-benzyl-3-cyanothiophen-2-yl)benzofuran-2-carboxamide] | potently block STAT3 phosphorylation at submicromolar levels | no effect | 65.67% |  |  |  |  | 
N#Cc1cc(Cc2ccccc2)sc1NC(=O)COc1cccc(C(F)(F)F)c1 [Compound 6, N-(5-benzyl-3-cyanothiophen-2-yl)-2-(3-(trifluoromethyl)phenoxy)acetamide] |  |  | 51.00% |  |  |  |  | 
CC(C)(Oc1ccccc1)C(=O)Nc1sc(Cc2ccccc2)cc1C#N [Compound 7, N-(5-benzyl-3-cyanothiophen-2-yl)-2-methyl-2-phenoxypropanamide] | potently block STAT3 phosphorylation at submicromolar levels | no effect | 23.33% |  |  |  |  | 
N#Cc1cc(Cc2ccccc2)sc1NC(=O)COc1ccccc1 [Compound 1, N-(5-benzyl-3-cyanothiophen-2-yl)-2-phenoxyacetamide] |  | no effect | 28.06% | 85 nM | 95 nM | sensitive | resistant | markedly reduced

Source: patent US20240368112A1, “BENZYLTHIOPHENE DERIVATIVES” (Rosalind Franklin University of Medicine & Science, priority 2021, published 2024)
